Laboratory results taken from PubChem BioAssay AID1850 (Southern Research Specialized Biocontainment Screening …, 2009).
“And” between values parts separate entries of the source, which are not always exact repeats. Equal values may be shown once.

tested on: Salmonella Typhi PhoP-promoter GFP reporter, fluorescence, 4 h; experiment: PhoP regulon inhibitors, Salmonella typhi PhoP promoter GFP reporter, confirmatory (AID 1850)

Point of comparison: `CCCCCCCCCn1c2c(c(=N)c3c1CCC3)CCC2`, IC50 17.4 µM. Against it:
- NC1CCN(c2nc3c(cc2F)c(=O)c(C(=O)O)cn3-c2ccc(F)cc2F)C1 (configuration not stated) — lower, < 0.23 µM
- CCCCCCCCCCOC(=O)Cn1c(COc2cccc(OC)c2)[n+](C)c2ccccc21 — within 1.5-fold, 12.7 µM
- O=C(CN1CC(c2ccccc2)CC1=O)N/N=C/c1cc(Br)ccc1O (configuration not stated) — 3.8-fold higher, 65.8 µM
- CCn1cc(C(=O)O)c(=O)c2cc(F)c(N3CCNCC3)cc21 — 64-fold lower, 0.27 µM
- COc1cc(CNCCc2ccccc2)cc(Cl)c1OCc1ccccc1 — 2.1-fold higher, 35.9 µM
- O=C(Nc1nnc(-c2cccs2)o1)c1cccc(Oc2ccccc2)c1 — 3.5-fold higher, 61.1 µM
- CN1CCc2nc(SCC(=O)Nc3cccc(F)c3)c(C#N)c(-c3cccs3)c2C1 — 5-fold higher, 86.2 µM
- COc1ccc(C2NCCc3c2[nH]c2ccccc32)cc1COc1ccc(F)cc1 (configuration not stated) — 2.2-fold higher, 39.1 µM
- NC1=NC2(CCCCC2)N=C(Nc2ccc(Br)cc2)N1 — within 1.5-fold, 12.7 µM
- Clc1ccc(CNCc2cccs2)cc1Cl — 1.8-fold higher, 32 µM
- Cc1cc(C)n(/N=C/c2cc([N+](=O)[O-])ccc2O)c(=O)c1 — 5.3-fold higher, 92 µM
- C#CCOCCOCCOCCNc1nc(N2CCN(C(=O)CCCCCCCCCCNC(=O)[C@H](CCCCN)n3cc(CCO)nn3)CC2)nc(N2CCN(C(=O)CCCCCCCCCCNC(=O)[C@H](CCCCN)n3cc(C[C@@H](C)CC)nn3)CC2)n1 — 1.8-fold higher, 31.9 µM
- CCOc1ccc(Nc2nc(NCC3CCCO3)c3ccccc3n2)cc1 (configuration not stated) — 5.3-fold lower, 3.28 µM
- CCOc1ccc(Nc2c3ccccc3nc3ccccc23)cc1 — 1.7-fold lower, 10.2 µM
- CO[C@@]1(NC(=O)Cc2cccs2)C(=O)N2C(C(=O)O)=C(COC(N)=O)CS[C@@H]21 — 1.9-fold lower, 9.3 µM
- OC(CNCC1CCCO1)Cn1c2ccc(Cl)cc2c2cc(Cl)ccc21 (configuration not stated) — 2-fold higher, 35.2 µM
- NC(=O)SCC(=O)Nc1ccc(Cl)cc1 — within 1.5-fold, 13.6 µM
- CCCCCCCCCCOC(=O)Cn1c(COc2ccccc2C)[n+](C)c2ccccc21 — within 1.5-fold, 13.2 µM
- CC[C@@H](C)[C@H](CN[C@H](CNC)C(C)C)NC[C@@H](C)c1ccc(CC(C)C)cc1 — 4.3-fold higher, 74 µM
- CNCc1c(OCc2ccccc2F)ccc2ccccc12 — 4.6-fold higher, 79.5 µM
- Oc1c(Br)cc(Br)cc1C=NCc1ccccc1 — 5-fold higher, 86.6 µM
- CN(C)CCCNc1cc(C(C)(C)C)nc2c(-c3ccc(Cl)cc3)cnn12 — within 1.5-fold, 18.9 µM
- Nc1nc(Nc2ccccc2)nc2ccccc12 — 2-fold higher, 34.4 µM
- CC1(C)CC(=O)c2c(nc3ccccc3c2N)C1 — 4.1-fold higher, 71.6 µM
- COc1cccc(NC2=NC3(CCCCC3)N=C(N)N2)c1 — 4.3-fold higher, 75.6 µM
- Cc1ccc(C(=O)NCCN2C3=NC[C@@H](Cc4ccccc4)N3C[C@H]2Cc2ccc(O)cc2)cc1Br — 2.7-fold higher, 47.2 µM
- CCN(CC)CCn1c(=N)n(CC(O)COc2cccc(C)c2)c2ccccc21 (configuration not stated) — 7.8-fold higher, 135 µM
- COC(=O)C(C)NC(=S)N1CCN(c2c(F)cc3c(=O)c(C(=O)O)cn(C4CC4)c3c2OC)CC1C (configuration not stated) — within 1.5-fold, 17.1 µM
- Clc1ccc(-c2cc(C3CCNCC3)[nH]n2)c(Cl)c1 — 3.2-fold higher, 55 µM
- CN1CCN(C2Cc3cc(F)ccc3Sc3ccc(Cl)cc32)CC1 (configuration not stated) — 3.6-fold higher, 62.1 µM
- Fc1ccc(CCNCc2ccccc2Cl)cc1 — 4.2-fold higher, 73.4 µM
- C[C@H]1c2cccc(O)c2C(O)=C2C(=O)C3(O)C(O)=C(C(N)=O)C(=O)[C@@H](N(C)C)[C@@H]3[C@@H](O)[C@@H]21 (some centres not stated) — 8.7-fold lower, 2.01 µM
- Fc1ccc([C@@H]2CCNC[C@H]2COc2ccc3c(c2)OCO3)cc1 — 2.5-fold higher, 42.9 µM
- CCCCCCCCCCCCOC(=O)C[N+](C)(C)C — 1.7-fold higher, 29.9 µM
- c1ccc(CN2CCN(c3nc(NCc4ccco4)c4ccccc4n3)CC2)cc1 — 2.2-fold higher, 38 µM
- S=C(Nc1cc(Cl)cc(Cl)c1)NC1CCN(Cc2ccccc2)CC1 — 4.6-fold higher, 80.8 µM
- O=c1cc(-c2ccccc2)cc(-c2ccccc2)n1O — within 1.5-fold, 19.2 µM
- O=[N+]([O-])c1cccc2c(N3CCCC3)ccnc12 — 1.5-fold higher, 26.6 µM
- CC[n+]1c(/C=C/N(C)c2ccccc2)n(-c2ccccc2)c2ccc(-c3nc4ccccc4s3)cc21 — 2.9-fold lower, 5.9 µM
- CCOC(=O)N1CCN(Cc2cc(Cl)c3cccnc3c2O)CC1 — 3.5-fold higher, 61.7 µM
- OC(CNCCc1ccccc1)COc1ccc(OCC(O)CNCCc2ccccc2)cc1 (configuration not stated) — 2.1-fold higher, 35.8 µM
- Cc1ccc2c(c1)N/C(=C(\C=C(/Cl)[N+](=O)[O-])[N+](=O)[O-])N2 — 5.7-fold higher, 99.7 µM
- Oc1ccc(/C=N/Nc2nccnc2Cl)c(O)c1 — 4-fold higher, 70.4 µM
- CCOc1cccc(CNCCc2c(C)[nH]c3ccc(OC(F)(F)F)cc23)c1O — 2.3-fold higher, 39.7 µM
- COC(=O)c1sccc1NC(=S)NCc1ccc(Cl)cc1 — 2.1-fold higher, 36.9 µM
- CCCCC(CC)CN=C(N)NC(N)=NCCCCCCN=C(N)NC(N)=NCC(CC)CCCC (configuration not stated) — 6.4-fold lower, 2.73 µM
- COc1ccc2c(C(=O)CCl)c[nH]c2c1 — 3.8-fold higher, 66.9 µM
- C/C(=N/Nc1ccnc2cc(Cl)ccc12)c1ccc(N)cc1 — 1.7-fold higher, 30 µM
- NC1=NC[C@H](Cc2ccc(O)cc2)N1CCCCC1CCCCC1 — within 1.5-fold, 17.7 µM
- Fc1ccc(Nc2nnc(C(F)(F)F)s2)cc1Cl — 2.1-fold higher, 36.8 µM
- O=C(N/N=C/c1cc(Cl)cc([N+](=O)[O-])c1O)C1CC1 — 6.1-fold higher, 106 µM
- CCCCOc1ccc(C(=O)NNC(=S)NC(=O)CC)cc1 — 2.1-fold higher, 37.1 µM
- CCCNC(=O)c1cn(CC)c2cc(N3CCN(C)CC3)c(F)cc2c1=O — within 1.5-fold, 13.4 µM
- Fc1ccc(Nc2c3c(nc4ccccc24)CCC3)cc1 — 2-fold higher, 35.1 µM
- CC(=O)Nc1ccc(S(=O)(=O)NNc2cccc(C)c2)cc1 — 2.3-fold higher, 39.2 µM
- Cc1ccc(C(=O)N2C(=S)C(c3ccc(F)cc3)=NC23CCN(C)CC3)cc1 — 6.8-fold higher, 119 µM
- CCN1CCN(C(=O)c2cc3cc(F)ccc3[nH]2)CC1 — 5.9-fold higher, 102 µM
- CO[C@@]1(NC(=O)C2SC(=C(C(N)=O)C(=O)O)S2)C(=O)N2C(C(=O)O)=C(CSc3nnnn3C)CS[C@@H]21 (some centres not stated) — 1.8-fold lower, 9.42 µM
- O=C(Cn1cncn1)N/N=C/c1ccccc1O — 8-fold higher, 139 µM
- CSc1ccc2c(c1)C(N1CCN(C)CC1)Cc1ccc(F)cc1S2 (configuration not stated) — 2.1-fold higher, 36.8 µM
- O=C(/C=C/c1ccccc1)NC(=S)NNC(=O)c1cnccn1 — 1.7-fold higher, 29.7 µM
- CCCCc1ccc(NC2=NCCCS2)cc1 — 8-fold higher, 140 µM
- O=C(Nc1ccc(Cc2ccncc2)cc1)c1ccc([N+](=O)[O-])o1 — 4.6-fold higher, 80.3 µM
- CCn1cc(C(=O)O)c(=O)c2cc(F)c(N3CCN(C(=S)Nc4ccc(OC)cc4)CC3)cc21 — 3-fold lower, 5.79 µM
- O=S1(=O)Nc2c(ccc3cccnc23)-c2ccccc21 — 8-fold lower, 2.17 µM
- CN1CCN(/N=C/c2c3ccccc3c(Cl)c3ccccc23)CC1 — 4.3-fold higher, 74.6 µM
- O=c1ccc2cc3c([nH]c4ccc(Br)cc43)oc-2c1O — within 1.5-fold, 24.1 µM
- N/C(=N\N=C/c1ccc(F)cc1)N/N=C\c1ccc(F)cc1 — 2.2-fold higher, 37.8 µM
- CN(C)CC/C=C1\c2ccccc2Sc2cc(F)c(Cl)cc21 — 1.5-fold higher, 26.5 µM
- Cc1ccc(C)c(N/C(N)=N/c2nc(C)cc(C)n2)c1 — 8.1-fold higher, 141 µM
- CN(C)CCN(C(=O)C1=COCCO1)c1nc2ccc(Cl)cc2s1 — 7.8-fold higher, 135 µM
- O=C(Cc1cccs1)N/N=C\c1ccc([N+](=O)[O-])s1 — 2-fold higher, 35 µM
- Nc1nc(Nc2ccc(Cl)cc2)nc2ccccc12 — within 1.5-fold, 15.3 µM
- CCCCCCCCC[n+]1cccc2c3ccccc3ccc21 — within 1.5-fold, 18.6 µM
- Cc1nc2c(=O)n(C)c(=O)nc-2n(C)n1 — 13-fold lower, 1.29 µM
- COc1ccc(C(=O)NNC(=S)NC(=O)c2ccccc2)cc1 — 5.7-fold higher, 99.7 µM
- CN1CC=C(/C=C/c2ccc(-c3ccccc3)cc2)CC1 — 3.5-fold higher, 60.2 µM
- CCC(C)N1CCC2(CC1)N=c1c(c3c4c5c(C)c(O)c3c(O)c1=NC(=O)C(C)=CC=C[C@H](C)[C@H](O)[C@@H](C)[C@@H](O)[C@@H](C)[C@H](OC(C)=O)[C@H](C)[C@@H](OC)C=CO[C@@](C)(O5)C4=O)N2 (some centres not stated) — 6.9-fold lower, 2.54 µM
- CCCCCCCNC(=O)C1(CC2CC(c3ccc(Cl)cc3)=NO2)CCNCC1 (configuration not stated) — 2.1-fold higher, 37.4 µM
- C#CCOCCOCCOCCNc1nc(N2CCN(C(=O)CCCCCCCCCCNC(=O)Cn3cc(CCCCCN)nn3)CC2)nc(N2CCN(C(=O)CCCCCCCCCCNC(=O)[C@@H]([C@H](C)O)n3cc(C)nn3)CC2)n1 — 6.6-fold higher, 114 µM
- O=C(N/N=C/c1ccc([N+](=O)[O-])o1)C1CCCC1 — 2-fold higher, 35.5 µM
- C#CCOCCOCCOCCNc1nc(N2CCN(C(=O)CCCCCCCCCCNC(=O)[C@H](CCCCN)n3cc(C)nn3)CC2)nc(N2CCN(C(=O)CCCCCCCCCCNC(=O)[C@H](CO)n3cc(CCCSC)nn3)CC2)n1 — 6.5-fold higher, 113 µM
- OC(CN1CCCCC1)Cn1c2ccccc2c2cc(Br)ccc21 (configuration not stated) — 4-fold higher, 69.7 µM
- O=C(C[n+]1cnn(CC(=O)c2ccc(Cl)cc2Cl)c1)c1ccc([N+](=O)[O-])cc1 — 2.1-fold higher, 37.4 µM
- C#CCOCCOCCOCCNc1nc(N2CCN(C(=O)[C@H](Cc3cc4ccccc4[nH]3)n3cc([C@@H](N)C(C)CC)nn3)CC2)nc(N2CCN(C(=O)[C@H](Cc3cc4ccccc4[nH]3)n3cc([C@@H](N)CC(C)C)nn3)CC2)n1 (some centres not stated) — 4-fold higher, 70 µM
- Nc1nc2ccccc2n1CCOc1ccccc1Cl — 4.2-fold higher, 73.3 µM
- COc1ccc(/C=N/Nc2cc(C)nc3c(C)cccc23)cc1 — within 1.5-fold, 19.3 µM
- O=C(O)/C(=C\C(=O)c1ccccc1)Nc1ccccc1 — 2.3-fold higher, 39.4 µM
- COCCCNC(=S)NNC(=O)c1ccccn1 — 2.1-fold higher, 37.4 µM
- CC1(C)N=C(N)NC(Nc2cccc(Br)c2)=N1 — 2-fold higher, 34.7 µM
- Nc1ncncc1-c1ccc([N+](=O)[O-])cc1 — 4.6-fold higher, 80.1 µM
- C(=N\Nc1ccccn1)/c1cccnc1 — 1.9-fold higher, 33.9 µM
- Clc1ccc2[nH]c3c(c2c1)CCc1cn[nH]c1-3 — 4.6-fold higher, 79.6 µM
- CCCCOc1ccc(CSC(=N)N)cc1Cl — 4.5-fold higher, 77.7 µM
- CC(C)Oc1ccc(Cc2cnc(N)nc2N)cc1 — 3.9-fold higher, 67.5 µM
- CC(=O)NNC(=S)NC(=O)c1ccccc1 — within 1.5-fold, 20.5 µM
- C1=C(CCNc2ncnc3c2[nH]c2ccccc23)CCCC1 — 1.8-fold higher, 30.7 µM
- O=C(Nc1nnc(-c2ccco2)o1)c1cccc(Cl)c1 — 2.1-fold higher, 36.9 µM
- Oc1cc(Cl)ccc1Oc1ccc(Cl)cc1Cl — 26-fold lower, 0.67 µM
- Nc1c2ccccc2nc2ccccc12 — 2.1-fold higher, 36.8 µM
- Cc1c(N=Cc2cc(Br)cc(Br)c2O)cccc1C(=O)O — 2.4-fold higher, 40.9 µM
- Oc1ccc(C[C@@H]2CNCCN2CCC23CC4CC(CC(C4)C2)C3)cc1 — 4.1-fold higher, 71.5 µM
- CCn1cc(C(=O)O)c(=O)c2cc3c(cc21)OCO3 — 2.5-fold higher, 43.3 µM
- CCOC(=O)N1CCC(=NNc2ccnc3cc(Cl)ccc23)CC1 — 2-fold higher, 35.3 µM
- Cc1ccc(-n2c(-c3ccc(Br)cc3)c[n+]3c2CCc2ccc4cccnc4c2-3)cc1 — 3.6-fold higher, 62.2 µM
- O=C1c2ccccc2NC(c2ccc(-c3ccc(Br)cc3)o2)N1O (configuration not stated) — 2.1-fold higher, 35.8 µM
- NC1=NC[C@@H](Cc2ccc(O)cc2)N1CCCCC1CCCCC1 — within 1.5-fold, 13.7 µM
- N#C/C(=C\c1ccc[nH]1)C(=O)NC1CC1 — 4.2-fold higher, 73.8 µM
- CC(NCc1ccc(-c2ccccc2)cc1)C(O)c1ccccc1 (configuration not stated) — 3.7-fold higher, 63.6 µM
- CN(C)c1ccc(O)c2c1CC1CC3C(N(C)C)C(=O)C(C(N)=O)=C(O)[C@@]3(O)C(=O)C1=C2O (some centres not stated) — 2-fold lower, 8.82 µM

In the case of `CCCCCCCCCCOC(=O)Cn1c(COc2ccc(OC)cc2)[n+](C)c2ccccc21`, the IC50 is reported as 22.7 µM and 14.4 µM.
